From EP4745134A1 (Jiangsu Yahong Meditech Co., Ltd., priority 2023, dated 2025)
Where two headings read alike, the source gives them in different places.

Columns and labels:
HCT116-WT cells = assay: Inhibitory activity against cell proliferation (CellTiter Glo, 6 days), HCT116-WT; format: cell-based; conditions: HCT116-WT cells, 6 days, CellTiter Glo, read-out: HCT116-WT IC50
Method: HCT116-WT (ATCC, CCL-247) and HCT116 MTAP KO (Nanjing Cobioer, CBP75002) cells were seeded into white low-transparency sterile 96-well cell culture plates at a density of 250 cells per well respectively, and the culture medium was McCoy's 5A Medium+10% FBS. The plates were placed under the condition of 37°C and 5% CO2 to be cultured overnight. The cells were treated with 4-fold serially diluted compounds of 8 concentration points starting at an initial concentration of 10000 nM, and the last two columns were used as control wells to which only DMSO was added. The drug-treated cells were further cultured for 6 days. On day 7, CellTiter Glo® reagent was added at 50 uL per well, and after reaction under shaking for 10 minutes at room temperature, the chemiluminescence signals were detected for the well plates through the chemiluminescence detection method using a BIOTEK H1 multifunctional microplate-reader. The IC50 values for inhibition of the compounds on cell viability were calculated in X1fit 5.0 software. Table 2. IC50 values for inhibition of the compounds on HCT116 MTAP KO/WT cell growth

HCT116 MTAP KO cells = assay: Inhibitory activity against cell proliferation (CellTiter Glo, 6 days), HCT116 MTAP KO; format: cell-based; conditions: for IC50: HCT116 MTAP KO cells, 6 days, CellTiter Glo, read-out: HCT116 MTAP KO IC50; for Selectivity HCT 116-WT/ HCT116 MTAP KO: ratio of IC50 HCT116-WT / HCT116 MTAP KO
Outline: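 Cells were seeded at 250 per well in McCoy's 5A with 10% FBS and left overnight at 37°C, 5% CO2. Compounds were added as 8-point, 4-fold dilutions from 10000 nM, with DMSO-only controls, for 6 days. IC50 values came from CellTiter Glo luminescence.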

| SMILES | IC50 (HCT116-WT cells; 144 h) | IC50 (HCT116 MTAP KO cells; Homo sapiens, HCT-116, 144 h) | Selectivity HCT 116-WT/ HCT116 MTAP KO (HCT116 MTAP KO cells) | IC50 (HCT116-WT cells) | IC50 (HCT116 MTAP KO cells) |
| --- | --- | --- | --- | --- | --- |
| Cc1cc2cc(C(=O)N(Cc3ccc(-c4ccc(N(C)C(C)C)nc4)cn3)N(C)c3ncccn3)ccc2nc1N [Example 257, 2-amino-N-((6'-(isopropyl(methyl)amino) -[3,3'-bipyridin]-6-yl)methyl)-N',3-dimet hyl-N'-(pyrimidin-2-yl)quinoline-6-carbo hydrazide] | 1020 nM | 76 nM | 13.42 | – | – |
| Cc1cc2cc(C(=O)N(Cc3ccc(-c4ccc(N5CCN(C)C(=O)C5)nc4)cn3)N(C)c3ncccn3)ccc2nc1N [Example 258, 2-amino-N',3-dimethyl-N-((6'-(4-methyl-3-oxopiperazin-1-yl)-[3,3'-bipyridin]-6-yl)methyl)-N'-(pyrimidin-2-yl)quinoline-6-carbohydrazide] | 716 nM | 31 nM | 23.10 | – | – |
| Cc1cc2cc(C(=O)N(Cc3ccc(-c4ccc(N(C)CCN(C)C)nc4)cn3)N(C)c3ncccn3)ccc2nc1N [Example 260, 2-amino-N-((6'-((2-(dimethylamino)ethyl)(methyl)amino)-[3,3'-bipyridine]-6-yl)methyl) -N', 3-dimethyl-N'-(pyrimidin-2-yl)quinoline-6-carbohydrazide] | 465 nM | 21 nM | 22.14 | – | – |
| Cc1cc2cc(C(=O)N(Cc3ccc(I)cn3)N(C)c3ncccn3)ccc2nc1N [Example 263, 2-amino-N-((5-iodopyridin-2-yl)methyl)-N',3-dimethyl-N'-(pyrimidin-2-yl)quinoline-6-carbohydrazide] | 404 nM | 17 nM | 23.76 | – | – |
| CN(c1ccccc1F)N(Cc1ccc(C(F)(F)F)cn1)C(=O)c1ccc2nc(N)c3cnn(C)c3c2c1 [Example 281, 4-amino-N'-(2-fluorophenyl)-N',1-dimethyl-N-((5-(trifluoromethyl)pyridin-2-yl)methyl)-1H-pyrazolo[4,3-c]quinoline-8-carb ohydrazide] | 42 nM | 3.3 nM | 12.73 | – | – |
| Cc1cc2cc(C(=O)N(Cc3ccc(C(C)(C)F)cn3)N(C)c3ncccn3)ccc2nc1N [Example 288, 2-amino-N-((5-(2-fluoroprop-2-yl)pyridin-2-yl)methyl)-N',3-dimethyl-N'-(pyrimidin-2-yl)quinoline-6-carbohydrazide] | 1910 nM | 66 nM | 28.91 | – | – |
| Cc1cc2cc(C(=O)N(Cc3ccc(C(F)(F)C(F)(F)F)cn3)N(C)c3ncccn3)ccc2nc1N [Example 293, 2-amino-N,3-dimethyl-N-((5-(perfluoroethyl)pyridin-2-yl)methyl)-N-(pyrimidin-2-yl)q uinoline-6-carbohydrazide] | 666 nM | 25 nM | 26.64 | – | – |
| [2H]C([2H])([2H])c1cc2cc(C(=O)N(Cc3ccc(C(F)(F)F)cn3)N(C)c3ncccc3F)ccc2nc1N [Example 309, 2-amino-N'-(3-fluoropyridin-2-yl)-N'-methyl-3-(methyl-d3)-N-((5-(trifluoromethyl)pyridin-2-yl)methyl)quinoline-6-carbohydrazide] | 466 nM | 30 nM | 15.53 | – | – |
| [2H]C([2H])([2H])c1cc2cc(C(=O)N(Cc3ccc(C(F)(F)F)cn3)Nc3ncccn3)ccc2nc1N [Example 312, 2-amino-3-(methyl-D3)-N'-(pyrimidin-2-yl)-N-((5-(trifluoromethyl)pyridin-2-yl)methyl)quinoline-6-carbohydrazide] | 3040 nM | 94 nM | 32.33 | – | – |
| [2H]C([2H])([2H])c1cc2cc(C(=O)N(Cc3ccc(-c4nncs4)cn3)N(c3ncccn3)C3CC3)ccc2nc1N [Example 315, N-((5-(1,3,4-thiadiazol-2-yl)pyridin-2-yl)methyl)-2-amino-N'-cyclopropyl-3-(methyl-d3)-N'-(pyrimidin-2-yl)quinoline-6-carbohydrazide] | 1350 nM | 54 nM | 24.96 | – | – |
| Cc1cc2nc(N)c3cnn(C)c3c2cc1C(=O)N1CC(O)(C(F)(F)F)CN1c1ncccc1F (stereo not drawn) [Example 355, (4-amino-1,7-dimethyl-1H-pyrazolo[4,3-c]quinolin-8-yl)(2-(3-fluoropyridin-2-yl)-4-hydroxy-4-(trifluoromethyl)pyrazolidin-1-yl)methanone] | 4800 nM | 150 nM | 32.00 | – | – |
| Cc1cc2nc(N)c3cnn(C)c3c2cc1C(=O)N1C(C)CCN1c1ncccc1F (stereo not drawn) [Example 376, (4-amino-1,7-dimethyl-1H-pyrazolo[4,3-c]quinolin-8-yl)(2-(3-fluoropyridin-2-yl)-5-methylpyrazolidin-1-yl)methanone] | – | – | 35.48 | 3720 nM | 105 nM |
| Cc1cc2nc(N)c3cnn(C)c3c2cc1C(=O)N1CC(C)CN1c1ncc(Cl)cc1F (stereo not drawn) [Example 394, (4-amino-1,7-dimethyl-1H-pyrazolo[4,3-c]quinolin-8-yl)(2-(5-chloro-3-fluoropyridin-2-yl)-4-methylpyrazolidin-1-yl)metha none] | 717 nM | 16 nM | 44.81 | – | – |
| Cn1ncc2c(N)nc3cc(Cl)c(C(=O)N4CC(C)(F)CN4c4ncc(Br)cc4F)cc3c21 (stereo not drawn) [Example 420, (4-amino-7-chloro-1-methyl-1H-pyrazolo [4,3-c]quinolin-8-yl)(2-(5-bromo-3-fluor opyridin-2-yl)-4-fluoro-4-methylpyrazolidin-1-yl)methanone] | 743 nM | 26 nM | 28.58 | – | – |
| Cn1ncc2c(N)nc3cc(Cl)c(C(=O)N4CC(C)(F)CN4c4cccc(F)n4)cc3c21 (stereo not drawn) [Example 426, (4-amino-7-chloro-1-methyl-1H-pyrazolo [4,3-c]quinolin-8-yl)(4-fluoro-2-(6-fluoropyridin-2-yl)-4-methylpyrazolidin-1-yl)m ethanone] | 700 nM | 49 nM | 14.29 | – | – |
| COC1(C)CN(C(=O)c2cc3c(cc2C)nc(N)c2cnn(C)c23)N(c2ncccc2F)C1 (stereo not drawn) [Example 428, (4-amino-1,7-dimethyl-1H-pyrazolo[4,3-c]quinolin-8-yl)(2-(3-fluoropyridin-2-yl)-4-methoxy-4-methylpyrazolin-1-yl)methanone] | 321 nM | 12 nM | 26.75 | – | – |
| COC1CN(C(=O)c2cc3c(cc2C)nc(N)c2cnn(C)c23)N(c2ncc(Br)cc2F)C1 (stereo not drawn) [Example 438, (4-amino-1,7-dimethyl-1H-pyrazolo[4,3-c]quinolin-8-yl)(2-(5-bromo-3-fluoropyridin-2-yl)-4-methoxypyrazolidin-1-yl)met hanone] | 1510 nM | 40 nM | 37.65 | – | – |
| Cc1cc2nc(N)c3cnn(C)c3c2cc1C(=O)N1CCCN1c1ncc(C2=CCN(C)CC2)cc1F [Example 470, (4-amino-1,7-dimethyl-1H-pyrazolo[4,3-c]quinolin-8-yl)(2-(5-fluoro-1'-methyl-1', 2',3',6'-tetrahydro-[3,4'-bipyridine]-6-yl)pyrazolidin-1-yl)methanone] | 3040 nM | 94 nM | 32.33 | – | – |
| Cc1cc2nc(N)c3cnn(C)c3c2cc1C(=O)N1CCCN1c1ncc(-c2cnn(C)c2)cc1F [Example 471, (4-amino-1,7-dimethyl-1H-pyrazolo[4,3-c]quinolin-8-yl)(2-(3-fluoro-5-(1-methyl-1H-pyrazol-4-yl)pyridin-2-yl)pyrazolidin-1-yl)methanone] | 5860 nM | 97 nM | 60.37 | – | – |
| Cc1cc2nc(N)c3cnn(C)c3c2cc1C(=O)N1CCCN1c1ncc(-c2cnn(C(F)(F)F)c2)cc1F [Example 480, (4-amino-1,7-dimethyl-1H-pyrazolo[4,3-c]quinolin-8-yl)(2-(3-fluoro-5-(1-(trifluor omethyl)-1H-pyrazol-4-yl)pyridin-2-yl)pyrazolidin-1-yl)methanone] | 1770 nM | 55 nM | 32.16 | – | – |
| Cc1cc2nc(N)c3cnn(C)c3c2cc1C(=O)N1CCCN1c1ncc(-c2cnc3c(cnn3C)c2)cc1F [Example 482, (4-amino-1,7-dimethyl-1H-pyrazolo[4,3-c]quinolin-8-yl)(2-(3-fluoro-5-(1-methyl-1H-pyrazolo[3,4-b]pyridin-5-yl)pyridin-2-yl)pyrazolidin-1-yl)methanone] | 5370 nM | 60 nM | 89.47 | – | – |
| Cc1cc2nc(N)c3cnn(C)c3c2cc1C(=O)N1CCCN1c1ncc(-c2ccsc2)cc1F [Example 483, (4-amino-1,7-dimethyl-1H-pyrazolo[4,3-c]quinolin-8-yl)(2-(3-fluoro-5-(thien-3-yl)pyridin-2-yl)pyrazolidin-1-yl)methanone] | 4170 nM | 100 nM | 41.72 | – | – |
